Like-named read-outs stand apart in the source and are kept apart here.
Tests used:
[1] = system: NCI-H1975 (ATCC CRL-5908) cell line comprising an EGFR T790M L858R double mutation; assay: EGFR-SOS cellular inhibition assay (CellTiter-Glo cell proliferation); assay type: cell-based; conditions: Homo sapiens, 120 h; NCI-H1975 cell proliferation, approximately 5 days; read-out: H1975 IC50
Procedure: A CellTiter-Glo (CTG) luminescent based assay (Promega) is used to assess growth of the cells, as a measurement of the ability of the compounds herein to inhibit EGFR signaling in the cells. […] The day after plating, cells are treated with a dilution series (e.g., a 9 point 3-fold dilution series) of the compounds herein (e.g., approximately 125 μL final volume per well).

[2] = molecular target: SOS1 (Homo sapiens (Human), UniProt Q07889); assay: Ras-SOS interaction assay (HTRF), K-Ras G13D utilized; assay type: binding; conditions: K-Ras G13D
Sequence of SOS1 (Q07889 564-1049): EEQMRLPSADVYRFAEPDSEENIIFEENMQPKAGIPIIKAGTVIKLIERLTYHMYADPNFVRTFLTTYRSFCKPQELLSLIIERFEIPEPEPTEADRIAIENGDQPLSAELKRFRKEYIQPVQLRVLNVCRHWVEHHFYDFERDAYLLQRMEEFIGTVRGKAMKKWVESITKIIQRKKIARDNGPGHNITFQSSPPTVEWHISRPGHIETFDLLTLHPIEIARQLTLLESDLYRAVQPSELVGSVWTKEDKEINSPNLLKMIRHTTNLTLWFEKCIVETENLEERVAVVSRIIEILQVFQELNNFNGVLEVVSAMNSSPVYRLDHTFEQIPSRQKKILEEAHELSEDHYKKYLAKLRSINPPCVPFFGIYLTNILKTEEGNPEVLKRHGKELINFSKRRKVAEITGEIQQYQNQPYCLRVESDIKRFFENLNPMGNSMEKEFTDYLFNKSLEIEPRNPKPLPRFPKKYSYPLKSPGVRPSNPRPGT

| IC50 [1] [nM] | IC50 ([2]; read-out: SOS1 IC50) [nM] | IC50 ([2]; read-out: IC50 value against SOS1) [nM] | Compound |
| --- | --- | --- | --- |
| < 1000 | < 100 |  | Cc1nc2c3cc(C4(C#N)CC4)c(=O)n(c3n1)CCCCC/C=C\COCC(F)(F)c1cccc(c1F)[C@@H](C)N2 [Compound 109, 1-((3R,Z)-4^2,5,5-trifluoro-1^2,3-dimethyl-1^7-oxo-1^7,1^8-dihydro-7-oxa-2-aza-1(4,8)-pyrido[2,3-d]pyrimidina-4(1,3)-benzenacyclopentadecaphan-9-en-1^6-yl)cyclopropane-1-carbonitrile] |
| < 1000 | < 100 |  | C[C@H]1Nc2ncnc3c2cc(C2CCS(=O)(=O)CC2)c(=O)n3CCCCCC(C)(O)CN2CCC(CC2)C(F)(F)c2cccc1c2 (stereo partly drawn) [Compound 110, (4R)-6^6-(1,1-dioxidotetrahydro-2H-thiopyran-4-yl)-2,2-difluoro-12-hydroxy-4,12-dimethyl-6^7,6^8-dihydro-5-aza-6(4,8)-pyrido[2,3-d]pyrimidina-1(4,1)-piperidina-3(1,3)-benzenacyclotridecaphan-6^7-one] |
| < 1000 | < 100 |  | C[C@H]1Nc2ncnc3c2cc(C2CCS(=O)(=O)CC2)c(=O)n3CCCCCCCN2C3CCC2CC(C3)C(F)(F)c2cccc1c2F [Compound 113, (11S,15R,4R)-6^6-(1,1-dioxidotetrahydro-2H-thiopyran-4-yl)-32,2,2-trifluoro-4-methyl-6^7,6^8-dihydro-1^8,5-diaza-6(4,8)-pyrido[2,3-d]pyrimidina-1(3,8)-bicyclo[3.2.1]octana-3(1,3)-benzenacyclotridecaphan-6^7-one] |
| < 1000 | < 100 |  | C[C@H]1Nc2ncnc3c2cc(C2CCS(=O)(=O)CC2)c(=O)n3CCCCCC(C#N)CN2CCC(CC2)C(F)(F)c2cccc1c2 (stereo partly drawn) [Compound 114, (4R)-6^6-(1,1-dioxidotetrahydro-2H-thiopyran-4-yl)-2,2-difluoro-4-methyl-6^7-oxo-6^7,6^8-dihydro-5-aza-6(4,8)-pyrido[2,3-d]pyrimidina-1(4,1)-piperidina-3(1,3)-benzenacyclotridecaphane-12-carbonitrile] |
| < 1000 | < 100 |  | C[C@H]1Nc2ncnc3c2cc(C2(C#N)CCS(=O)(=O)CC2)c(=O)n3CCCCCCCN2CCC(CC2)C(F)(F)c2cccc1c2 [Compound 116, 4-((4R)-2,2-difluoro-4-methyl-6^7-oxo-6^7,6^8-dihydro-5-aza-6(4,8)-pyrido[2,3-d]pyrimidina-1(4,1)-piperidina-3(1,3)-benzenacyclotridecaphane-6^6-yl)tetrahydro-2H-thiopyran-4-carbonitrile 1,1-dioxide] |
| < 1000 | < 100 |  | C[C@H]1Nc2ncnc3c2cc(C2CCS(=O)(=O)CC2)c(=O)n3CCCCNC(=O)CN2CCC(CC2)C(F)(F)c2cccc1c2 [Compound 118, (4R)-6^6-(1,1-dioxidotetrahydro-2H-thiopyran-4-yl)-2,2-difluoro-4-methyl-6^7,6^8-dihydro-5,11-diaza-6(4,8)-pyrido[2,3-d]pyrimidina-1(4,1)-piperidina-3(1,3)-benzenacyclotridecaphane-6^7,12-dione] |
| < 1000 | < 100 |  | C[C@H]1Nc2ncnc3c2cc(N2CCS(=O)(=O)CC2)c(=O)n3CCCCCN2CCC(CC2)CCC(F)(F)c2cccc1c2F [Compound 119, (3R)-1^6-(1,1-dioxidothiomorpholino)-4^2,5,5-trifluoro-3-methyl-1^7,1^8-dihydro-2-aza-1(4,8)-pyrido[2,3-d]pyrimidina-8(4,1)-piperidina-4(1,3)-benzenacyclotridecaphan-1^7-one] |
| < 1000 | < 100 |  | C[C@H]1Nc2ncnc3nc(c(C4(C#N)CC4)cc23)OCCCCCCN2CCC(CC2)C(F)(F)c2cccc1c2 [Compound 121, (R)-1-(2,2-difluoro-4-methyl-7-oxa-5-aza-6(4,7)-pyrido[2,3-d]pyrimidina-1(4,1)-piperidina-3(1,3)-benzenacyclotridecaphane-6^6-yl)cyclopropane-1-carbonitrile] |
| < 1000 | < 100 |  | CC(C)N1CCC(c2cc3c4ncnc3n(c2=O)CCOCCCCN2CCC(CC2)CC(F)(F)c2cccc(c2)[C@@H](C)N4)CC1 [Compound 122, (3R)-5,5-difluoro-1^6-(1-isopropylpiperidin-4-yl)-3-methyl-1^7,1^8-dihydro-12-oxa-2-aza-1(4,8)-pyrido[2,3-d]pyrimidina-7(4,1)-piperidina-4(1,3)-benzenacyclotetradecaphan-1^7-one] |
| < 1000 | < 100 |  | CC(C)N1CCN(c2cc3c4ncnc3n(c2=O)CCCCCCCN2CCC(CC2)C(F)(F)c2cccc(c2)[C@@H](C)N4)CC1 [Compound 123, (4R)-2,2-difluoro-6^6-(4-isopropylpiperazin-1-yl)-4-methyl-6^7,6^8-dihydro-5-aza-6(4,8)-pyrido[2,3-d]pyrimidina-1(4,1)-piperidina-3(1,3)-benzenacyclotridecaphan-6^7-one] |
| < 1000 | < 100 |  | C[C@H]1Nc2ncnc3c2cc(C2(C#N)CC2)c(=O)n3CCCCNC(=O)CN2CCC(CC2)C(F)(F)c2cccc1c2 [Compound 124, 1-((4R)-2,2-difluoro-4-methyl-6^7,12-dioxo-6^7,6^8-dihydro-5,11-diaza-6(4,8)-pyrido[2,3-d]pyrimidina-1(4,1)-piperidina-3(1,3)-benzenacyclotridecaphane-6^6-yl)cyclopropane-1-carbonitrile] |
| < 1000 | < 100 |  | C[C@H]1Nc2ncnc3c2cc(C2CCS(=O)(=O)CC2)c(=O)n3CCCCCCCN2CCC(CC2)C(F)(F)c2cccc1c2F [Compound 125, (4R)-6^6-(1,1-dioxidotetrahydro-2H-thiopyran-4-yl)-3^2,2,2-trifluoro-4-methyl-6^7,6^8-dihydro-5-aza-6(4,8)-pyrido[2,3-d]pyrimidina-1(4,1)-piperidina-3(1,3)-benzenacyclotridecaphan-6^7-one] |
| < 1000 | < 100 |  | C[C@H]1Nc2ncnc3c2cc(C2(C#N)CC2)c(=O)n3CCCCn2cc(nn2)CN2CCC(CC2)C(F)(F)c2cccc1c2F [Compound 126, 1-((6R,Z)-5^2,4,4-trifluoro-6-methyl-8^7-oxo-8^7,8^8-dihydro-1^1H-7-aza-8(4,8)-pyrido[2,3-d]pyrimidina-3(1,4)-piperidina-1(4,1)-triazola-5(1,3)-benzenacyclododecaphane-8^6-yl)cyclopropane-1-carbonitrile] |
| < 1000 | < 100 |  | C[C@H]1Nc2ncnc3c2cc(C2(C#N)CCS(=O)(=O)CC2)c(=O)n3CCCOCCCCN2CCC(CC2)C(F)(F)c2cccc1c2 [Compound 127, 4-((4R)-2,2-difluoro-4-methyl-6^7-oxo-6^7,6^8-dihydro-10-oxa-5-aza-6(4,8)-pyrido[2,3-d]pyrimidina-1(4,1)-piperidina-3(1,3)-benzenacyclotetradecaphane-6^6-yl)tetrahydro-2H-thiopyran-4-carbonitrile 1,1-dioxide] |
| < 1000 | < 100 |  | C[C@H]1Nc2ncnc3c2cc(C2(C#N)CC2)c(=O)n3CC(=O)N(C)CCCCN2CCC(CC2)C(F)(F)c2cccc1c2F [Compound 128, 1-((4R)-3^2,2,2-trifluoro-4,9-dimethyl-6^7,8-dioxo-6^7, 6^8-dihydro-5,9-diaza-6(4,8)-pyrido[2,3-d]pyrimidina-1(4,1)-piperidina-3(1,3)-benzenacyclotridecaphane-6^6-yl)cyclopropane-1-carbonitrile] |
| 1000 to 10000 | 100 to 5000 |  | Cc1nc2c3cc(C4(C#N)CC4)c(=O)n(c3n1)CCCCCCOCC(F)(F)c1cccc(c1F)[C@@H](C)N2 [Compound 130, 1-((3R)-4^2,5,5-trifluoro-1^2,3-dimethyl-1^7-oxo-1^7,1^8-dihydro-7-oxa-2-aza-1(4,8)-pyrido[2,3-d]pyrimidina-4(1,3)-benzenacyclotridecaphane-1^6-yl)cyclopropane-1-carbonitrile] |
| < 1000 | < 100 |  | C[C@H]1Nc2ncnc3c2cc(C2(C#N)CC2)c(=O)n3CCCCCC/C=C/CN2CCC(CC2)C(F)(F)c2cccc1c2 [Compound 131, 1-((4R,E)-2,2-difluoro-4-methyl-6^7-oxo-6^7,6^8-dihydro-5-aza-6(4,8)-pyrido[2,3-d]pyrimidina-1(4,1)-piperidina-3(1,3)-benzenacyclopentadecaphan-13-en-6^6-yl)cyclopropane-1-carbonitrile] |
| < 1000 | < 100 |  | C[C@H]1Nc2ncnc3c2cc(C2(C#N)CC2)c(=O)n3CC(=O)NCCCCN2CCC(CC2)C(F)(F)c2cccc1c2 [Compound 132, 1-((4R)-2,2-difluoro-4-methyl-6^7,8-dioxo-6^7,6^8-dihydro-5,9-diaza-6(4,8)-pyrido[2,3-d]pyrimidina-1(4,1)-piperidina-3(1,3)-benzenacyclotridecaphane-6^6-yl)cyclopropane-1-carbonitrile] |
| < 1000 | < 100 |  | CC(C)N1CCN(c2cc3c4ncnc3n(c2=O)CCOCCCCN2CCC(CC2)CC(F)(F)c2cccc(c2F)[C@@H](C)N4)CC1 [Compound 135, (3R)-4^2,5,5-trifluoro-1^6-(4-isopropylpiperazin-1-yl)-3-methyl-1^7,1^8-dihydro-12-oxa-2-aza-1(4,8)-pyrido[2,3-d]pyrimidina-7(4,1)-piperidina-4(1,3)-benzenacyclotetradecaphan-1^7-one] |
| < 1000 | < 100 |  | C[C@H]1Nc2ncnc3nc(c(C4(C#N)CC4)cc23)OCCCCCCCN2CCC(CC2)C(F)(F)c2cccc1c2 [Compound 137, (R)-1-(2,2-difluoro-4-methyl-7-oxa-5-aza-6(4,7)-pyrido[2,3-d]pyrimidina-1(4,1)-piperidina-3(1,3)-benzenacyclotetradecaphane-6^6-yl)cyclopropane-1-carbonitrile] |
| < 1000 | < 100 | < 50 | COc1cc2nc(C)nc3c2cc1OCCOCCOCCOCCOCCNCc1ccc(F)cc1C1=CC=C(S1)C(C)N3 (stereo not shown) [Compound 138, 1^5-fluoro-5^7-methoxy-5^2,3-dimethyl-6,9,12,15,18-pentaoxa-4,21-diaza-5(4,6)-quinazolina-2(2,5)-thiophena-1(1,2)-benzenacyclodocosaphane] |

From patent publication US20230339952A1, “MACROCYCLIC HETEROCYCLES AND USES THEREOF” (Kumquat Biosciences Inc., priority 2022, published 2023)
